Test results: patent US9403756B2, “N-phenyl anthranilic acid derivatives and uses thereof” (Ramot at Tel-Aviv University Ltd., priority 2007, dated 2016)

Assays:
hippocampal neurons = assay: Current-clamp recordings in cultured hippocampal neurons; type: cell-based, rat
Procedure: For hippocampal neuronal cultures, Sprague-Dawley rat embryos (E18) were removed by caesarian section and their hippocampi were dissected out. The tissue was digested with papain for 20 min, triturated to a single-cell suspension, and plated at a density of 40,000 cells per ml on a substrate of bovine collagen type IV and 100 μg/ml poly-L-lysine in 13 mm diameter glass coverslips of a 24-multiwell plate. The culture medium consisted of Modified Eagle's Medium containing 5% horse serum (Biological Industries, Beit HaEmek, Israel), B-27 neuronal supplement (Invitrogen, Carlsbad, Calif.), 100 U/ml penicillin, 100 μg/ml streptomycin, and 2 mM glutamine. D-glucose was supplemented to a final concentration of 6 g/l. Cytosine-1-D-arabinofuranoside (5 μM) was added after 5 days to arrest glial cell proliferation.
For electrophysiological recordings hippocampal neurons were used at 10-14 days in culture. All cultures were maintained at 37° C. in humidified air containing 5% CO2.
For current-clamp recordings in primary cultured neurons, the patch pipettes were filled with (in mM): 135 KCl, 1 K2ATP, 1 MgATP, 2 EGTA, 1.1 CaCl2, 5 glucose, 10 HEPES, adjusted with KOH at pH 7.4 (315 mOsm). […] A liquid junction potential of about −15.6 mV was measured between the intracellular and saline solutions and corrected on-line. […]

KCNQ2 mutant R201A = biological target: T1, KCNQ2 mutant R201A (Homo sapiens, UniProt O43526, R201A); assay: KCNQ2 S4 mutant R201A in CHO cells; type: cell-based; conditions: 25 μM NH29 (25 M [sic])
T1 construct: expressed in transfected cells; host or cells: CHO cells
T1 sequence (O43526 whole entry R201A): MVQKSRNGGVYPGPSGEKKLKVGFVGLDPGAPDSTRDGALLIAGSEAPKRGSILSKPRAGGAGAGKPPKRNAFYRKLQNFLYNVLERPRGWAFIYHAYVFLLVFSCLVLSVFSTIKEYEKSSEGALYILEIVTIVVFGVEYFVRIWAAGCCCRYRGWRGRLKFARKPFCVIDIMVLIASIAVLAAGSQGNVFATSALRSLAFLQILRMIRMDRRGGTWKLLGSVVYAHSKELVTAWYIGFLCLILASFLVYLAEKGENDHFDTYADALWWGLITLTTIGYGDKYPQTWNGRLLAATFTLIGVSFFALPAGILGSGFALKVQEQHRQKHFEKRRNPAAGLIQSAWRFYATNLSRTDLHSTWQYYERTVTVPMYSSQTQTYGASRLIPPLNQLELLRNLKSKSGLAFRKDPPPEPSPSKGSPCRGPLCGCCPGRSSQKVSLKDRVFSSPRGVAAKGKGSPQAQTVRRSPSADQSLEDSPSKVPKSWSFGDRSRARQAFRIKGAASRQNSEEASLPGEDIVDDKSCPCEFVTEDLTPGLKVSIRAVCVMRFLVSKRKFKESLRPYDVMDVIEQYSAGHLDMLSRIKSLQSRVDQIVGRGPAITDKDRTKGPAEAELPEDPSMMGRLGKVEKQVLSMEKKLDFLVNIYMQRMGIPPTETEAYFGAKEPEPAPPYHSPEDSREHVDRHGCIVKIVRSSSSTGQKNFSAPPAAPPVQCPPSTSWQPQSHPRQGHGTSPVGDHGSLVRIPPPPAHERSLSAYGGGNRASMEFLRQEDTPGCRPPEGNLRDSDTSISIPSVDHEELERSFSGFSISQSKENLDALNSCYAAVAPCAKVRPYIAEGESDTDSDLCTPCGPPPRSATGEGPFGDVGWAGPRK
From the text: (§1) FIGS. 12A-F present the potentiating effect of NH29, an exemplary channel opener compound according to embodiments of the present invention, on selected KCNQ2 mutants. Shown are bar diagrams comparing the potentiating effect of NH29 on native KCNQ2 and KCNQ2 mutants, wherein the mutated amino acids are located at the S1-S2 helix region (FIG. 12A) or S4 helix region (FIG. 12D) and wherein the opener effect is expressed as percent of the control current in the absence of the opener. For comparison, marked as a green line, is the observed current increase of native KCNQ2 by NH29. FIGS. 12B 12C, 12E and 12F present representative traces recorded from CHO cell transfected with the KCNQ2 mutant S122A, S121A, L206C and R201A respectively, before and after external application of 25 μM of NH29 and wherein the membrane potential was stepped from −90 mV holding potential to −40 mV for 1.5 seconds pulse duration.
(§2) Voltage-clamp recordings in CHO cells were performed, using the whole-cell configuration of the patch-clamp technique. Signals were amplified using an Axopatch 200B patch-clamp amplifier (Molecular Devices, Sunnyvale, Calif.), sampled at 2 kHz and filtered at 800 Hz via a 4-pole Bessel low pass filter. […] Series resistances (3-13 MΩ) were compensated (75-90%) and periodically monitored.

KCNQ2 mutant S121A = biological target: T2, KCNQ2 mutant S121A (Homo sapiens, UniProt O43526, S121A); assay: KCNQ2 S1-S2 mutant S121A in CHO cells; type: cell-based; conditions: 25 μM NH29
T2 construct: expressed in transfected cells; host or cells: CHO cells
T2 sequence (O43526 whole entry S121A): as the sequence (O43526 whole entry R201A) above, with S121A, A201R counted along it
From the text: as §1, §2

DRG neurons = assay: Current-clamp recordings in cultured DRG neurons; type: cell-based, rat; conditions: 25 μM NH29; 75-250 pA for 400 ms; control 8.7±0.8; n=12
Kv 2.1 = biological target: T3, Kv 2.1 (Homo sapiens, UniProt Q14721); assay: Kv channel selectivity, Xenopus oocytes: Kv2.1; type: cell-based; conditions: 25 μM, +30 mV
T3 construct: expressed in transfected cells; host or cells: Xenopus oocytes
T3 sequence (Q14721 whole entry): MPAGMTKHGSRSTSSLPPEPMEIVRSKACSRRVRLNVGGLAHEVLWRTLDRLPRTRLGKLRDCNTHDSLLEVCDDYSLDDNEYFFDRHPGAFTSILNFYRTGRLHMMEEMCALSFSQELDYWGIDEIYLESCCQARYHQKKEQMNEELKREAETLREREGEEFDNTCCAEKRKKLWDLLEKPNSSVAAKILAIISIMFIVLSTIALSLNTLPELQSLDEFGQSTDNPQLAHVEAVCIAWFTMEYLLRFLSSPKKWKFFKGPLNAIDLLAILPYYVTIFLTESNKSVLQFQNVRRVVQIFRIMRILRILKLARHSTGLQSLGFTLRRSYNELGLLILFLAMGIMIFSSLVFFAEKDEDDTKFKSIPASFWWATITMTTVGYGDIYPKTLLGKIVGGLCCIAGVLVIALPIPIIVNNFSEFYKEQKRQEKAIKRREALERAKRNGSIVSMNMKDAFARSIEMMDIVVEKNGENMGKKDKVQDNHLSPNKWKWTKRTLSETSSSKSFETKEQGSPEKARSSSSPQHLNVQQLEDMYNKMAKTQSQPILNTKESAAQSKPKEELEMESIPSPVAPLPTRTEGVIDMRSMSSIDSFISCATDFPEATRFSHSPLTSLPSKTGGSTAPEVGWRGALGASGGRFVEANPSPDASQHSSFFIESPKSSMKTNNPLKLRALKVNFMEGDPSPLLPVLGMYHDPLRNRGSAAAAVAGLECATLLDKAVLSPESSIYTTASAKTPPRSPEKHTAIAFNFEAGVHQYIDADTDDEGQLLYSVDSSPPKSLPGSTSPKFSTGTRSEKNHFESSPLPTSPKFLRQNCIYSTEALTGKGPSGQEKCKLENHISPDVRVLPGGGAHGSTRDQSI
Procedure: (§3) Voltage-clamp measurements in Xenopus oocytes were performed as previously described.
(§4) The selectivity of NH29 on other relevant Kv channels expressed in Xenopus oocytes was also studied, and the results are summarized in Table 3 below. The specificity of NH29 at 25 μM and 50 μM towards various Kv channels was tested in Xenopus oocytes, except for Kv1.2 which was checked in transfected CHO cells. The current amplitude of the various Kv channels was tested at the indicated voltages and the effect of the drugs was expressed as fold of the control amplitude measured under the same conditions in the absence of the drug. The data in Table 3 are expressed as mean±SEM of 5-7 separate experiments.

KCNQ2 mutant I209L = biological target: T4, KCNQ2 mutant I209L (Homo sapiens, UniProt O43526, I209L); assay: KCNQ2 S4 mutant I209L; type: cell-based; conditions: NH29
T4 construct: expressed in transfected cells; host or cells: CHO cells
T4 sequence (O43526 whole entry I209L): as the sequence (O43526 whole entry R201A) above, with A201R, I209L counted along it
From the text: as §1, §2

IKS = biological target: T5, IKS (Homo sapiens, UniProt P51787); assay: Kv channel selectivity, Xenopus oocytes: IKS; type: cell-based; conditions: +30 mV
T5 construct: expressed in transfected cells; host or cells: Xenopus oocytes
T5 sequence (P51787 whole entry): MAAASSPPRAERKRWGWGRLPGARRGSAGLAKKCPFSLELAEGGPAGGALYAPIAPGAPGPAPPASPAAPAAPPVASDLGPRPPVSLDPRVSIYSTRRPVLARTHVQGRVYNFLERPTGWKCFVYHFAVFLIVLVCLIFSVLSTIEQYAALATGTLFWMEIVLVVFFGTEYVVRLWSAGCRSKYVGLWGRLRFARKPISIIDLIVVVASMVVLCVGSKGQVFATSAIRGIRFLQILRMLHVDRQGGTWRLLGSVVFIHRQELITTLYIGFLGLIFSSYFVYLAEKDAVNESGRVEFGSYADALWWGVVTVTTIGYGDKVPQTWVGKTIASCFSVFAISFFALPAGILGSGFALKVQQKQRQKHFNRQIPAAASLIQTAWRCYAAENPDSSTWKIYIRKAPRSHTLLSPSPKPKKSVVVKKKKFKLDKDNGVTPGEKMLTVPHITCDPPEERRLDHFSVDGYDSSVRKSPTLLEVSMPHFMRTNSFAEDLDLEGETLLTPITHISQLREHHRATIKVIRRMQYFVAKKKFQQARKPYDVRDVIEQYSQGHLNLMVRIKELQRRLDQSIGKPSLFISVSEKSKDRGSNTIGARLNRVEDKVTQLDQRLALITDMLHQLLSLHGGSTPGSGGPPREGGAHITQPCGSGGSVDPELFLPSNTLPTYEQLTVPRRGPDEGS
Procedure: as §3, §4

Kv7.3 mutant A315T = biological target: T6, Kv7.3 mutant A315T (Homo sapiens, UniProt O43525, A315T); assay: Activation of Kv7.3 mutant A315T; type: cell-based
T6 construct: expressed in transfected cells
T6 sequence (O43525 whole entry A315T): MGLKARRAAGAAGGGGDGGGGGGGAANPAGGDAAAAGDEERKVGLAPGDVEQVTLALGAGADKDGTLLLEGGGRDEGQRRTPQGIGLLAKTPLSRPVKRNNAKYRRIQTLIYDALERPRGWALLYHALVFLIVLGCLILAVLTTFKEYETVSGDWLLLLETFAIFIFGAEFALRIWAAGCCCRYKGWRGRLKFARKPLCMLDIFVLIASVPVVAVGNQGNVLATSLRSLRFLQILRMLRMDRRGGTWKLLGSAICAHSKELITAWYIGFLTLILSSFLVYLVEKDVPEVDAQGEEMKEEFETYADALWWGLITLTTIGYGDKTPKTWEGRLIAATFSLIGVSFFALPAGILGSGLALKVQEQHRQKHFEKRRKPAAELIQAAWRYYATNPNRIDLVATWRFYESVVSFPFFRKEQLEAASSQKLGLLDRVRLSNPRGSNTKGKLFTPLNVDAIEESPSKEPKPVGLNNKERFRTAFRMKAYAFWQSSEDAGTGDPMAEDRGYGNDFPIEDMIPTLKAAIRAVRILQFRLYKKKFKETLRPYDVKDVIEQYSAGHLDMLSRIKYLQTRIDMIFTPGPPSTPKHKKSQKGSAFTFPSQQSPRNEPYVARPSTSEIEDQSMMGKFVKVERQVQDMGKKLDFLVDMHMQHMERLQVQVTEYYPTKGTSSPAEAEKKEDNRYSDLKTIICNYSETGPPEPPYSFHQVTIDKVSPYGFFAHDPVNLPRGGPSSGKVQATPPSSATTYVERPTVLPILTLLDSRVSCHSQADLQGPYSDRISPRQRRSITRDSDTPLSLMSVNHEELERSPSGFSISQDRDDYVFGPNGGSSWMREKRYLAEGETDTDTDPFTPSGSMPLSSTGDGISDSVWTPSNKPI
From the text: Among the Kv7 channel family, NH29 appeared to act as an opener of Kv7.2 but not of Kv7.1 and Kv7.4.

KCNQ2 mutant Y118S = biological target: T7, KCNQ2 mutant Y118S (Homo sapiens, UniProt O43526, Y118S); assay: KCNQ2 mutant Y118S; type: cell-based; conditions: 25 μM NH29
T7 construct: expressed in transfected cells
T7 sequence (O43526 whole entry Y118S): as the sequence (O43526 whole entry R201A) above, with Y118S, A201R counted along it
Procedure: FIG. 8 presents a bar-graph comparing the potentiating effect of 25 μM of Compound NH29 on various KCNQ subunits and mutants, wherein the opener effect is expressed as percent of the control current in the absence of the opener;

Kv 7.4 = biological target: T8, Kv 7.4 (Homo sapiens, UniProt P56696); assay: Kv channel selectivity, Xenopus oocytes: Kv7.4; type: cell-based; conditions: −30 mV
T8 construct: expressed in transfected cells; host or cells: Xenopus oocytes
T8 sequence (P56696 whole entry): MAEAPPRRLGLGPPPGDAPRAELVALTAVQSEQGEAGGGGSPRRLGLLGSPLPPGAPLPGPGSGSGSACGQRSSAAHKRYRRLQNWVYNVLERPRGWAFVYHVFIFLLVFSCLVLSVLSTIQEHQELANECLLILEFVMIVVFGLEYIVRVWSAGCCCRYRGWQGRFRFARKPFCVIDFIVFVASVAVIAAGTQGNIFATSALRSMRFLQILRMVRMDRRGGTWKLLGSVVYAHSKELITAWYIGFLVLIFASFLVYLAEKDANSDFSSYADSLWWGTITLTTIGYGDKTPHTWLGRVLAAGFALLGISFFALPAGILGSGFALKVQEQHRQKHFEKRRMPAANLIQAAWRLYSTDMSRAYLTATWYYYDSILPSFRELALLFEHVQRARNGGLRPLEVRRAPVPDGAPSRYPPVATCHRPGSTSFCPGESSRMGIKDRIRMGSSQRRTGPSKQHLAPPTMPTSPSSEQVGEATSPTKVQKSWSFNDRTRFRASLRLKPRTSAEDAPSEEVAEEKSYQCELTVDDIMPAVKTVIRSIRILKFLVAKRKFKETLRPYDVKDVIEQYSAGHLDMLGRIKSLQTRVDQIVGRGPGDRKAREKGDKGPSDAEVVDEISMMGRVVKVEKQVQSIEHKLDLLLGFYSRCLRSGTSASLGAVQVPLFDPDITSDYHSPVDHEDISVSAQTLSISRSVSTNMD
Procedure: as §3, §4

Kv1.2 = biological target: T9, Kv1.2 (Homo sapiens, UniProt P16389); assay: Kv channel selectivity, transfected CHO cells: Kv1.2; type: cell-based; conditions: for Fold current amplitude: 0 mV, transfected CHO cells
T9 construct: expressed in transfected cells; host or cells: CHO cells
T9 sequence (P16389 whole entry): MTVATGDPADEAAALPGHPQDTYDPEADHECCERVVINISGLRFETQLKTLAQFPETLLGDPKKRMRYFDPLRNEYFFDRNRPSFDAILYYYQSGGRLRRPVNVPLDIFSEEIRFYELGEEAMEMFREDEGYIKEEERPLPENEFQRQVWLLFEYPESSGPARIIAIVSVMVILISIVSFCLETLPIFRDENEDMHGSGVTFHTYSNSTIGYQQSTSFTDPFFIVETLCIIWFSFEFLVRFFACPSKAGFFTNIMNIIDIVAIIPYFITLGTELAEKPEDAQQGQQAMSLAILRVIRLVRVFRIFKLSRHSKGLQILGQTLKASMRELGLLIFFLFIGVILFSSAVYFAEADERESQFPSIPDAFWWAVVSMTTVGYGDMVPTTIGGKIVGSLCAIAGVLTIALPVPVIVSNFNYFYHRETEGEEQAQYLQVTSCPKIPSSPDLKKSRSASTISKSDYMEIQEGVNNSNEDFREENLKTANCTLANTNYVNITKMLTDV
Procedure: Voltage-clamp recordings in CHO cells were performed, using the whole-cell configuration of the patch-clamp technique. Signals were amplified using an Axopatch 200B patch-clamp amplifier (Molecular Devices, Sunnyvale, Calif.), sampled at 2 kHz and filtered at 800 Hz via a 4-pole Bessel low pass filter. Data were acquired using pClamp 9.2 software (Molecular Devices) and an IBM compatible Pentium IV computer in conjunction with a DigiData 1322A interface (Molecular Devices). The patch pipettes were pulled from borosilicate glass (Warner Instrument Corp, USA) with a resistance of 2-5 MΩ. For K^+ current recordings in CHO cells, the intracellular pipette solution contained (in mM): 130 KCl, 1 MgCl2, 5 K2ATP, 5 EGTA, 10 HEPES, adjusted with KOH to pH 7.4 (290 mOsm). The extracellular solution contained (in mM): 140 NaCl, 4 KCl, 1.8 CaCl2, 1.2 MgCl2, 11 glucose, 5.5 HEPES, adjusted with NaOH to pH 7.4 (310 mOsm). Series resistances (3-13 MΩ) were compensated (75-90%) and periodically monitored.
as §4

## O=C(Cc1cc([N+](=O)[O-])ccc1Nc1c(Cl)cccc1Cl)OCCO [NH25]
Hippocampal neurons; 25 μM NH25, 75-200 pA for 400 ms, control 9.6±1.0, n=8
  number of evoked action potentials: 2.1±0.5
Hippocampal neurons; NH25
  hyperpolarization of resting membrane potential: −8.5 mV

## O=C(Cc1cc([N+](=O)[O-])cc([N+](=O)[O-])c1Nc1c(Cl)cc([N+](=O)[O-])cc1Cl)NCCO [NH29]
KCNQ2 mutant R201A
  fold enhancement of current: 1.2 fold
KCNQ2 mutant S121A
  fold activation of current: 2 fold
DRG neurons
  number of evoked action potentials: 0.9±0.1
Kv 2.1
  Fold current amplitude: 1.2 ± 0.09 fold
KCNQ2 mutant I209L
  sensitivity to the activating effect compared to wild-type Kv7.2: significantly less sensitive
IKS; 25 μM
  Fold current amplitude: 1.02 ± 0.04 fold
IKS; 50 μM
  Fold current amplitude: 0.97 ± 0.04 fold
Kv7.3 mutant A315T
  activation of Kv7.3 mutant A315T: could also activate Kv7.3
KCNQ2 mutant Y118S
  fold potentiation of current: 2.1 fold
Kv 7.4; 25 μM
  Fold current amplitude: 1.0 ± 0.12 fold
Kv 7.4; 50 μM
  Fold current amplitude: 0.9 ± 0.04 fold
Kv1.2; 25 μM
  Fold current amplitude: 0.9 ± 0.01 fold
Kv1.2; 50 μM
  Fold current amplitude: 0.66 ± 0.03 fold
Kv1.2; CHO, 50 μM, read-out: inhibition of Kv1.2 current
  inhibition at 50 µM: 34%
